{"source": "patent US12570642B2", "about": "“GLP-IR modulating compounds” (Gilead Sciences, Inc., priority 2021, dated 2026)", "data": [{"target": "GLP-1R (Homo sapiens, UniProt P43220)", "sequence (P43220 24-463)": "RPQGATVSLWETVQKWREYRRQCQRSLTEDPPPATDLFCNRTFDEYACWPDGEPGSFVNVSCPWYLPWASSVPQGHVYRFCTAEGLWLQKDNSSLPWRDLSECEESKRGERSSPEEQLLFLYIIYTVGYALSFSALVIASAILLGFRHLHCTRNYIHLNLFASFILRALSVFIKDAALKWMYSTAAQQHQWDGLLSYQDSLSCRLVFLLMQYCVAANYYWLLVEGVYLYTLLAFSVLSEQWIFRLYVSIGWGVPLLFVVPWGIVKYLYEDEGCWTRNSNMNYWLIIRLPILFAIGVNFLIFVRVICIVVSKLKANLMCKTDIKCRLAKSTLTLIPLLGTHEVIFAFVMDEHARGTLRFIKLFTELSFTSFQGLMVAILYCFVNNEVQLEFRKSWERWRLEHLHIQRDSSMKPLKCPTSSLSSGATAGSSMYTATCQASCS", "assay": "GLP-1R Activation - cAMP Assay", "assay_type": "cell-based", "details": "[…]; each compound run on one of the two cAMP assays (Assay 1 or Assay 2, not specified)", "description": "(§1) GLP-1R Activation—cAMP Assay 1\n(§2) GLP-1R activation by compounds of the present disclosure were quantified by measuring cAMP increase in CHO cells stably expressing GLP-1R (MultiSpan product #C1267-1a). The cells were harvested and plated in growth medium (DMEM/F-12 (Corning product #10-090-CV) supplemented with 10% FBS (HyClone product #SH30071-03), penicillin/streptomycin (Corning product #30-002CI) and 10 μg/ml puromycin (Gibco product #A11138-03)) at 1,000 cells/well in a 384-well plate (Greiner product #781080). The cells were then incubated overnight at 37° C., 5% CO2. The next day, the medium was removed and the cells were washed with DPBS (Corning product #21-031-CM) before adding the assay medium (HBSS, Corning product #21-023-CV) with 20 mM Hepes (Gibco product #15630-080) and 0.1% BSA (Rockland Immunochemicals product #BSA-1000)). Following the medium change, the cells were incubated for 1 hour at 37° C., 5% CO2. The tested GLP-1 compound was added to the cells in a 10-point dose response followed by a 30 minutes incubation at 37° C., 5% CO2. cAMP concentration increase was then detected using Cisbio's cAMP Gs Dynamic Kit (product #62AM4PEC) according to the manufacturer's protocol. The response was plotted against the log of the agonist concentration and fitted to a sigmoidal equation to determine the EC50.", "units": {"EC50": "nM"}, "values": [{"smiles": "N#Cc1ccc(COc2cccc(-c3cc(F)c(Cc4nc5ccc(C(=O)O)cc5n4[C@@H]4CNC(=O)C4)cc3F)n2)c(F)c1", "note": "[Example 2, (S)-2-(4-(6-((4-cyano-2-fluorobenzyl)oxy)pyridin-2-yl)-2,5-difluorobenzyl)-1-(5-oxopyrrolidin-3-yl)-1H-benzo[d]imidazole-6-carboxylic acid]", "EC50": 156}, {"smiles": "N#Cc1ccc(COc2cccc(-c3cc(F)c(Cc4nc5ccc(C(=O)O)cc5n4[C@H]4CNC(=O)C4)cc3F)n2)c(F)c1", "note": "[Example 3, (R)-2-(4-(6-((4-cyano-2-fluorobenzyl)oxy)pyridin-2-yl)-2,5-difluorobenzyl)-1-(5-oxopyrrolidin-3-yl)-1H-benzo[d]imidazole-6-carboxylic acid]", "EC50": 11.5}, {"smiles": "CC(=O)N1C[C@H](n2c(Cc3cc(F)c(-c4cccc(OCc5ccc(C#N)cc5F)n4)cc3F)nc3ccc(C(=O)O)cc32)C2(CC2)C1", "note": "[Example 14]", "EC50": 78.7}, {"smiles": "CC(=O)N1C[C@@H](n2c(Cc3cc(F)c(-c4cccc(OCc5ccc(C#N)cc5F)n4)cc3F)nc3ccc(C(=O)O)cc32)C2(CC2)C1", "note": "[Example 15, (S)-1-(5-acetyl-5-azaspiro[2.4]heptan-7-yl)-2-(4-(6-((4-cyano-2-fluorobenzyl)oxy)pyridin-2-yl)-2,5-difluorobenzyl)-1H-benzo[d]imidazole-6-carboxylic Acid]", "EC50": 71}, {"smiles": "CO[C@H]1CN(C(C)=O)C[C@@H]1n1c(Cc2cc(F)c(-c3cccc(OCc4ccc(C#N)cc4F)n3)cc2F)nc2ccc(C(=O)O)cc21", "note": "[Example 16, 1-((3S,4S)-1-acetyl-4-methoxypyrrolidin-3-yl)-2-(4-(6-((4-cyano-2-fluorobenzyl)oxy)pyridin-2-yl)-2,5-difluorobenzyl)-1H-benzo[d]imidazole-6-carboxylic Acid]", "EC50": 4800}]}, {"target": "GLP-1R (Homo sapiens, UniProt P43220)", "assay": "GLP-1R Activation - cAMP Assay", "assay_type": "cell-based", "details": "cAMP increase in CHO cells stably expressing GLP-1R; each compound run on one of the two cAMP assays (Assay 1 or Assay 2, not specified)", "description": "as §1, §2", "units": {"EC50": "nM"}, "values": [{"smiles": "CC1(C)COC[C@@H]1n1c(Cc2cc(F)c(-c3cccc(OCc4ccc(C(F)F)cc4F)n3)cc2F)nc2ccc(C(=O)O)cc21", "note": "(single isomer, unassigned) [Example 383B]", "EC50": 0.971}, {"smiles": "CC1(C)COC[C@H]1n1c(Cc2cc(F)c(-c3cccc(OCc4ccc(Cl)cc4)n3)cc2F)nc2ccc(C(=O)O)cc21", "note": "(single isomer, unassigned) [Example 385A]", "EC50": 0.089}, {"smiles": "CC1(C)COC[C@@H]1n1c(Cc2cc(F)c(-c3cccc(OCc4ccc(Cl)cc4)n3)cc2F)nc2ccc(C(=O)O)cc21", "note": "(single isomer, unassigned) [Example 385B]", "EC50": 1.12}, {"smiles": "CO[C@@H]1CCOC[C@@H]1n1c(Cc2cc(F)c(-c3cccc(OCc4ccc(C#N)cc4F)n3)cc2F)nc2ccc(C(=O)O)cc21", "note": "(single isomer, unassigned) [Example 408]", "EC50": 0.633}, {"smiles": "CO[C@H]1CCOC[C@H]1n1c(Cc2cc(F)c(-c3cccc(OCc4ccc(C#N)cc4F)n3)cc2F)nc2ccc(C(=O)O)cc21", "note": "(single isomer, unassigned) [Example 409]", "EC50": 0.291}, {"smiles": "N#Cc1ccc(COc2cccc(-c3cc(F)c(Cc4nc5ccc(C(=O)O)cc5n4[C@@H]4COC[C@@H]4CO)cc3F)n2)c(F)c1", "note": "(single isomer, unassigned) [Example 435]", "EC50": 0.06}, {"smiles": "N#Cc1ccc(COc2cccc(-c3cc(F)c(Cc4nc5ccc(C(=O)O)cc5n4[C@H]4COC[C@H]4CO)cc3F)n2)c(F)c1", "note": "(single isomer, unassigned) [Example 436]", "EC50": 0.993}, {"smiles": "CO[C@]1(C)COC[C@@H]1n1c(Cc2cc(F)c(-c3cccc(OCc4ccc(Cl)cc4F)n3)cc2F)nc2ccc(C(=O)O)cc21", "note": "(single isomer, unassigned) [Example 473]", "EC50": 0.092}, {"smiles": "CO[C@@]1(C)COC[C@H]1n1c(Cc2cc(F)c(-c3cccc(OCc4ccc(Cl)cc4F)n3)cc2F)nc2ccc(C(=O)O)cc21", "note": "(single isomer, unassigned) [Example 474]", "EC50": 0.181}, {"smiles": "CC1(C)COC[C@H]1n1c(Cc2cc(F)c(-c3cccc(OCc4ccc(C(F)F)cc4F)n3)cc2F)nc2c(F)cc(C(=O)O)cc21", "note": "(single isomer, unassigned) [Example 502A]", "EC50": 0.281}, {"smiles": "CC1(C)COC[C@@H]1n1c(Cc2cc(F)c(-c3cccc(OCc4ccc(C(F)F)cc4F)n3)cc2F)nc2c(F)cc(C(=O)O)cc21", "note": "(single isomer, unassigned) [Example 502B]", "EC50": 0.939}, {"smiles": "COC[C@@]1(C)COCC1n1c(Cc2cc(F)c(-c3cccc(OCc4ccc(Cl)cc4F)n3)cc2F)nc2ccc(C(=O)O)cc21", "note": "(single isomer, unassigned) [Example 546]", "EC50": 0.706}, {"smiles": "COC[C@@]1(C)COCC1n1c(Cc2cc(F)c(-c3cccc(OCc4ccc(Cl)cc4F)n3)cc2F)nc2ccc(C(=O)O)cc21", "note": "(single isomer, unassigned) [Example 547]", "EC50": 0.024}, {"smiles": "COC[C@]1(C)COCC1n1c(Cc2cc(F)c(-c3cccc(OCc4ccc(Cl)cc4F)n3)cc2F)nc2ccc(C(=O)O)cc21", "note": "(stereo in doubt) [Example 549, 2-(4-(6-((4-chloro-2-fluorobenzyl)oxy)pyridin-2-yl)-2,5-difluorobenzyl)-1-((3R,4S)-4-(methoxymethyl)-4-methyltetrahydrofuran-3-yl)-1H-benzo[d]imidazole-6-carboxylic acid]", "EC50": 0.727}, {"smiles": "O=C(O)c1ccc2nc(Cc3cc(F)c(-c4cccc(OCc5ccc(Cl)cc5F)n4)cc3F)n(C3COC4CC3C4)c2c1", "note": "(stereo in doubt) [Example 572, (R)-1-(2-oxabicyclo[3.1.1]heptan-4-yl)-2-(4-(6-((4-chloro-2-fluorobenzyl)oxy)pyridin-2-yl)-2,5-difluorobenzyl)-1H-benzo[d]imidazole-6-carboxylic acid]", "EC50": 0.322}, {"smiles": "O=C(O)c1ccc2nc(Cc3cc(F)c(-c4cccc(OCc5ccc(Cl)cc5F)n4)cc3F)n(C3COC4CC3C4)c2c1", "note": "(stereo in doubt) [Example 573, (S)-1-(2-oxabicyclo[3.1.1]heptan-4-yl)-2-(4-(6-((4-chloro-2-fluorobenzyl)oxy)pyridin-2-yl)-2,5-difluorobenzyl)-1H-benzo[d]imidazole-6-carboxylic acid]", "EC50": 0.188}, {"smiles": "N#Cc1ccc(COc2cccc(-c3cc(F)c(Cc4nc5ccc(C(=O)O)cc5n4[C@H]4CCOC4)cc3F)n2)c(F)c1", "note": "[Example 1, (S)-2-(4-(6-((4-cyano-2-fluorobenzyl)oxy)pyridin-2-yl)-2,5-difluorobenzyl)-1-(tetrahydrofuran-3-yl)-1H-benzo[d]imidazole-6-carboxylic acid]", "EC50": 1.12}, {"smiles": "N#Cc1ccc(COc2cccc(-c3cc(F)c(Cc4nc5ccc(C(=O)O)cc5n4[C@@H]4C[C@@H]4C(F)F)cc3F)n2)c(F)c1", "note": "[Example 4, 2-(4-(6-((4-cyano-2-fluorobenzyl)oxy)pyridin-2-yl)-2,5-difluorobenzyl)-1-((1R,2S)-2-(difluoromethyl)cyclopropyl)-1H-benzo[d]imidazole-6-carboxylic acid]", "EC50": 2.65}, {"smiles": "N#Cc1ccc(COc2cccc(-c3cc(F)c(Cc4nc5ccc(C(=O)O)cc5n4[C@@H]4CCOC4)cc3F)n2)c(F)c1", "note": "[Example 5, (R)-2-(4-(6-((4-cyano-2-fluorobenzyl)oxy)pyridin-2-yl)-2,5-difluorobenzyl)-1-(tetrahydrofuran-3-yl)-1H-benzo[d]imidazole-6-carboxylic acid]", "EC50": 0.77}, {"smiles": "N#Cc1ccc(COc2cccc(-c3cc(F)c(Cc4nc5ccc(C(=O)O)cc5n4C4CCCC4)cc3F)n2)c(F)c1", "note": "[Example 6, 2-(4-(6-((4-cyano-2-fluorobenzyl)oxy)pyridin-2-yl)-2,5-difluorobenzyl)-1-cyclopentyl-1H-benzo[d]imidazole-6-carboxylic acid]", "EC50": 8.49}, {"smiles": "COCCn1c(Cc2cc(F)c(-c3cccc(OCc4ccc(-c5cnn(C(F)(F)F)c5)cc4F)n3)cc2F)nc2ccc(C(=O)O)cc21", "note": "[Example 7, 2-(2,5-difluoro-4-(6-((2-fluoro-4-(1-(trifluoromethyl)-1H-pyrazol-4-yl)benzyl)oxy)pyridin-2-yl)benzyl)-1-(2-methoxyethyl)-1H-benzo[d]imidazole-6-carboxylic acid]", "EC50": 0.6}, {"smiles": "CC1(C)COC[C@@H]1n1c(Cc2cc(F)c(-c3cccc(OCc4ccc(C#N)cc4F)n3)cc2F)nc2c(F)cc(C(=O)O)cc21", "note": "[Example 11, (R)-2-(4-(6-((4-cyano-2-fluorobenzyl)oxy)pyridin-2-yl)-2,5-difluorobenzyl)-1-(4,4-dimethyltetrahydrofuran-3-yl)-4-fluoro-1H-benzo[d]imidazole-6-carboxylic Acid]", "EC50": 0.26}, {"smiles": "CC1(C)COC[C@H]1n1c(Cc2cc(F)c(-c3cccc(OCc4ccc(C#N)cc4F)n3)cc2F)nc2c(F)cc(C(=O)O)cc21", "note": "[Example 12, (S)-2-(4-(6-((4-cyano-2-fluorobenzyl)oxy)pyridin-2-yl)-2,5-difluorobenzyl)-1-(4,4-dimethyltetrahydrofuran-3-yl)-4-fluoro-1H-benzo[d]imidazole-6-carboxylic Acid]", "EC50": 0.03}, {"smiles": "CC1(C)COCC1n1c(Cc2cc(F)c(-c3cccc(OCc4ccc(C#N)cc4F)n3)cc2F)nc2c(Br)cc(C(=O)O)cc21", "note": "(centres unmarked) [Example 13, 4-bromo-2-(4-(6-((4-cyano-2-fluorobenzyl)oxy)pyridin-2-yl)-2,5-difluorobenzyl)-1-(4,4-dimethyltetrahydrofuran-3-yl)-1H-benzo[d]imidazole-6-carboxylic Acid]", "EC50": 0.19}]}]}
